Tested on: GSPT1
Test: Streptavidin pulldown and Western blot of biotinylated ubiquitinated GSPT1 in 293T CRBN-/- CRBN-BirA cells
Assay type: cell-based, human
Method: However, instead of assessing transiently-expressed V5-tagged IKZF1, an endogenous neo-substrate of CRBN, namely, GSPT1, was assessed. […] Following incubation with the components and added agents, the cells were lysed, and streptavidin-coated beads were used to capture from the cell lysate biotinylated, ubiquitinated proteins, e.g., the endogenous GSPT1 substrate. The biotinylated proteins eluted from the beads were subjected to Western blot analyses.
The cells were either treated or untreated with carfilzomib (0.4 μM) for 1 hour and were either treated or untreated with the CRBN-IMiD modifying agent CC-885 (1 μM) for another hour. […] As discussed above in Example 1, the GSPT1 substrate of BirA-tagged CRBN is expressed endogenously in 293T cells.
The preparation of cellular lysate was as described above for Cell Lysis, except that the RIPA buffer was supplemented with COMPLETE™ EDTA-free protease inhibitor cocktail (Roche; 04693159001; 1 tablet per 10 ml of buffer), benzonase (Millipore; E1014; 1 μl per 10 ml of buffer), 1.5 mM MgCl2, 1 mM EGTA, and 10 mM NEM (N-ethylmaleimide). For each sample, 1 ml of 3 mg/ml lysate was rotated overnight at 4° C. with 50 μl of resuspended streptavidin Sepharose beads (CYTIVA™; 17511301), which were pre-washed with RIPA lysis buffer 3 times. For all steps that required pelleting of beads, centrifugation was performed at 400×g for 1 minute. On the next day, streptavidin beads were pelleted, and the supernatant (a.k.a. flow-through) was either saved for analysis by Western blotting or was discarded. Streptavidin beads were then washed two times with 1 ml of 2% SDS wash buffer (2% SDS, 25 mM Tris-HCl, pH 7.5), and three times with 0.5-1 ml of 2M urea wash buffer (2M urea, 50 mM Tris-HCl, pH 8). Between each wash, the beads were rotated at room temperature for at least 5 minutes. During the last wash, the beads and the washing buffer were transferred to a new microfuge tube. […] For mass spectrometry-based analysis, the procedures described in On-bead Digestion below were used.
On the next day, the cells were transfected using pRK5-Avi-HA-ubiquitin or pRK5-A3-HA-ubiquitin in serum-free DMEM.

With `Cc1ccc(NC(=O)NCc2ccc3c(c2)CN(C2CCC(=O)NC2=O)C3=O)cc1Cl` (centres unmarked) [CC-885] the “Specific signal, normalized GSPT1/biotin ratios” value (A3-tag compared to Avi-tag, FIG. 6C) was “increase in specific signal”, the “Sensitivity in detecting CC-885-induced ubiquitination of GSPT1 by CRBN” value (A3-tag, FIG. 6C) was 36.39 and the “Ubiquitinated GSPT1 captured by streptavidin beads compared with DMSO” value (Avi-HA-Ub, 1 μM, 2 hours, Western blot quantification (FIG. 5C)) was 6-12 fold. The “Mono- and poly-ubiquitinated GSPT1 captured by streptavidin beads” value (Avi-HA-Ub, FIG. 5C) was “only observed in conditions where CC-885 was present” and the “Sensitivity in detecting CC-885-induced ubiquitination of GSPT1 by CRBN” value (Avi-tag, FIG. 6C) was 15.46.
